From US20070134660A1, “Methods for identifying modulators of kinesin activity” (ROSETTA INPHARMATICS LLC, priority 2003, published 2007)

Tests used:
[1] = target: T1, MKLP-1 (SEQ ID NO:20) (Homo sapiens, UniProt Q02241); assay: MKLP-1 motor domain ATPase assay; format: biochemical; conditions: read-out: uKHC, nKHC, CENP-E, MKLP-1, KIF1B, MCAK ATPase IC50
T1 construct: His6 (printed only as 'H')
T1 sequence (Q02241 with tags, fused parts or gaps): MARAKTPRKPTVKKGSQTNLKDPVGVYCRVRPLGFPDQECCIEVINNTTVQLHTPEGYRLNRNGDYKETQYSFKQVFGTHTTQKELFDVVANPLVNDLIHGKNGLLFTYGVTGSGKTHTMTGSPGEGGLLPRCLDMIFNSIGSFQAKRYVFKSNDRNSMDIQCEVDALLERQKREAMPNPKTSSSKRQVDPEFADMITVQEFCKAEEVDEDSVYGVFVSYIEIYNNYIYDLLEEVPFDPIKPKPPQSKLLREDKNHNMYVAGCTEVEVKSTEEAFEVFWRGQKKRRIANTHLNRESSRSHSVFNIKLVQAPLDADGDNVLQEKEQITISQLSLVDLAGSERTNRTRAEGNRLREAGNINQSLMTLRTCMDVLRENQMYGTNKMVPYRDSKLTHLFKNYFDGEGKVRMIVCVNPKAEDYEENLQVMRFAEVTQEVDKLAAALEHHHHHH

[2] = tested on: A2780 cells; assay: alamarBlue cell growth assay, candidate KIF14 modulators in A2780 cells; format: cell-based; conditions: Homo sapiens, 48 hour incubation; for EC50: read-out: EC50 (nM), Growth Inhibition in A2780 Cells; for inhibition at 0.0137 µM: [Compound] 13.7 nM; for inhibition at 0.0141 µM: [Compound] 14.1 nM; for inhibition at 0.123 µM: [Compound] 123 nM; for inhibition at 0.37 µM: [Compound] 370 nM; for inhibition at 1.111 µM: [Compound] 1111 nM; for inhibition at 3.333 µM: [Compound] 3333 nM; for inhibition at 10 µM: [Compound] 10000 nM
Protocol: (§1) alamarBlue™ Assay for Cell Growth: The alamarBlue™ assay is a measure of cellular respiration and is used as a measure of live cell number. The internal environment of the proliferating cell is more reduced than that of non-proliferating cells. Specifically, the ratios of NADPH/NADP, FADH/FAD, FMNH/FMN, and NADH/NAF increase during proliferation. alamarBlue™ can be reduced by these metabolic intermediates and, therefore, can be used to monitor cell proliferation.
A2780 cells were plated at a density of 4000/cells per well in RPMI1640 (containing 10% FBS, 1% Pen/Strep, 0.01 mg/ml insulin) in a 96-well plate (Costar, Cat. No. 3606) 16 hours prior to treatment. A compound dilution plate was prepared from a 10 mM stock solution using a 3-fold serial dilution series in DMSO. A 1.2 microliter aliquot of each concentration was transferred into 0.6 ml of medium. A 100 microliter aliquot of each concentration was added to the appropriate wells already containing 100 microliters of compound-free medium. After a 48 hour incubation at 37° C., 20 microliters of alamarBlue™ was added to each well (10% vol/vol). After an additional 6 hour incubation at 37° C., the plates were read on a spectrofluorimeter SpectroMax Gemini (excitation 544 nm, emission 590 nm). The background value (averaged from wells with no cells) was subtracted from each reading.

[3] = target: T2, CENP-E (SEQ ID NO:19) (Homo sapiens, UniProt Q02224); assay: CENP-E motor domain ATPase assay; format: biochemical; conditions: read-out: uKHC, nKHC, CENP-E, MKLP-1, KIF1B, MCAK ATPase IC50
T2 construct: His6 (printed only as 'H')
T2 sequence (Q02224 with tags, fused parts or gaps): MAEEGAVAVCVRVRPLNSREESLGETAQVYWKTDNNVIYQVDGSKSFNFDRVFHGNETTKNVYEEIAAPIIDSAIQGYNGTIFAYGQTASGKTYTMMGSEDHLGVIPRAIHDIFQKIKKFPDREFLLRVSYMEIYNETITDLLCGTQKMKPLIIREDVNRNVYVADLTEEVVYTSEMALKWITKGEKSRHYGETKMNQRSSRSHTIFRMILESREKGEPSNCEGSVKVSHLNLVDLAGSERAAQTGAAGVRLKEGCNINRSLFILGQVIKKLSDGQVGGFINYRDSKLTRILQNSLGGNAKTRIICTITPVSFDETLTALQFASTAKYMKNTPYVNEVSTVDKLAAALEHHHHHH

[4] = tested on: HeLa cells; assay: alamarBlue cell growth assay, candidate KIF14 modulators in HeLa cells; format: cell-based, human; conditions: 72 hours; for IC50: Homo sapiens, HeLa, compounds 1 and 2: submaximal inhibition
Protocol: as §1
HeLa cells were plated at a density of 2000/cells per well in 10% DMEM in a 96-well plate (Costar, Cat. No. 3606) 20 hours prior to treatment with a KIF14 inhibitory compound in a series of dilutions (20 microliters of 11-fold concentrated solution of the compound added to 200 microliters of media). The cells were incubated at 37° C. for 72 hours prior to replacement of 100 microliters per well of the media with 10% (vol/vol) alamarBlue™ reagent. After incubation for 2 hours at 37° C., the plates were read on a spectrofluorimeter SpectroMax Gemini (excitation 544 nm, emission 590 nm). The background value (averaged from wells with no cells) was subtracted from each reading.

[5] = target: T3, KIF3A (SEQ ID NO:16) (Homo sapiens, UniProt Q9Y496); assay: KIF3A motor domain ATPase assay; format: biochemical; conditions: n = 2
T3 construct: His6 (printed only as 'H')
T3 sequence (Q9Y496 with tags, fused parts or gaps): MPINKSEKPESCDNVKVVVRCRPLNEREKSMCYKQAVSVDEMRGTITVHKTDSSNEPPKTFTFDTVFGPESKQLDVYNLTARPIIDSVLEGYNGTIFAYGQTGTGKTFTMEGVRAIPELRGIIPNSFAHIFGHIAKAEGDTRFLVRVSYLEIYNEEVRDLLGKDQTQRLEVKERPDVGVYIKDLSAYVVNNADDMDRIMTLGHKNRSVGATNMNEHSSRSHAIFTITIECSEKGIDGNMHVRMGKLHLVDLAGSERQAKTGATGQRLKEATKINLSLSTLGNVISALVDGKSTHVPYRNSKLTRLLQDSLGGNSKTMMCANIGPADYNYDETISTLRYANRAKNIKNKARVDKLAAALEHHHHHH

[6] = target: T4, KSP (SEQ ID NO:15) (Homo sapiens, UniProt P52732); assay: KSP motor domain ATPase assay; format: biochemical; conditions: n = 2
T4 construct: His6 (printed only as 'H')
T4 sequence (P52732 with tags, fused parts or gaps): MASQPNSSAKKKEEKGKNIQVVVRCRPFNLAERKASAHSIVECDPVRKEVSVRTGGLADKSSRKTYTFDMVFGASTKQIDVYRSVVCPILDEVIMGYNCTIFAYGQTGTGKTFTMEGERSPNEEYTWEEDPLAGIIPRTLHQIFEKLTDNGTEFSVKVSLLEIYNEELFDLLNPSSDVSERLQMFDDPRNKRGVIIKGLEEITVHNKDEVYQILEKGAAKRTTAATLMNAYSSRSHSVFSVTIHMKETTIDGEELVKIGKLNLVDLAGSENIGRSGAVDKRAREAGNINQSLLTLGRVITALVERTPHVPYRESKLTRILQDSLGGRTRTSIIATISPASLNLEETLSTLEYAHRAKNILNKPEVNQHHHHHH

SMILES | IC50 [1] | EC50 [2] | inhibition at 0.0137 µM [2] | inhibition at 0.0141 µM [2] | inhibition at 0.123 µM [2] | inhibition at 0.37 µM [2] | inhibition at 1.111 µM [2] | inhibition at 3.333 µM [2] | inhibition at 10 µM [2] | IC50 [3] | IC50 [4] | Growth Inhibition in HeLa Cells ([4]; [Compound] 19.5 nm) | Growth Inhibition in HeLa Cells ([4]; [Compound] 39.1 nm) | Growth Inhibition in HeLa Cells ([4]; [Compound] 78.1 nm) | Growth Inhibition in HeLa Cells ([4]; [Compound] 156.2 nm) | Growth Inhibition in HeLa Cells ([4]; [Compound] 312.5 nm) | Growth Inhibition in HeLa Cells ([4]; [Compound] 625 nm) | Growth Inhibition in HeLa Cells ([4]; [Compound] 1250 nm) | IC50 [5] | IC50 [6] | further results
NC(=S)N/N=C\c1ccc(-c2ccccc2)cc1 [compound 1, 1,1′-biphenyl-4-carbaldehyde thiosemicarbazone] | > 40 µM | > 10000 nM | -4.5% | 11.6% | -10.3% | 19% | 18.7% | 23.6% | 31.3% | > 40 µM | 1 µM | −3.58% | −4.74% | −2.50% | 5.29% | 10.32% | 12.76% | 19.73% | 0.631 µM | > 40 µM | Growth Inhibition in HeLa Cells ([4]; [Compound] 2500 nm): 51.68%; Growth Inhibition in HeLa Cells ([4]; [Compound] 5000 nm): 48.18%; Growth Inhibition in HeLa Cells ([4]; [Compound] 10000 nm): 40.98%
CC(C)c1ccc(/C=N/NC(N)=S)cc1 [compound 2, 4-isopropylbenzaldehyde thiosemicarbazone] | > 40 µM |  |  |  |  |  |  |  |  | > 40 µM |  |  |  |  |  |  |  |  | 31 µM | 25.1 µM | 
NC(=S)N/N=C/c1ccc(C2CCCCC2)cc1 [compound 3, 4-cyclohexylbenzaldehyde thiosemicarbazone] | > 40 µM | 3600 nM | -5.3% | -8.1% | -10.4% | 7.8% | 6% | 39.8% | 107% | > 40 µM | 2.8 µM | 8.97% | 5.97% | 8.16% | 6.91% | 8.88% | 12.32% | 7.53% | 0.699 µM | 1.53 µM | Growth Inhibition in HeLa Cells ([4]; [Compound] 2500 nm): 44.36%; Growth Inhibition in HeLa Cells ([4]; [Compound] 5000 nm): 83.84%; Growth Inhibition in HeLa Cells ([4]; [Compound] 10000 nm): 95.02%
CC(C)c1ccc(/C=N/NC(N)=S)cc1[N+](=O)[O-] [compound 4, 4-isopropyl-3-nitrobenzaldehyde thiosemicarbazone] | > 40 µM | 7980 nM | -7% | -4% | -9.2% | 4.4% | 7.5% | 25% | 61.8% | > 40 µM |  |  |  |  |  |  |  |  | 1.55 µM | 1.1 µM | 
